The text below walks through data of patent US20260285898A1, “SAPONIN DERIVATIVES AS ADJUVANTS AND PHOTOAFFINITY PROBES” (ASOCIACIÓN CENTRO DE INVESTIGACIÓN COOPERATIVE EN …, priority 2023, published 2026).

This series is described as follows: Initial toxicity assessment in mice by median weight loss after injection. The note with it: monitored after each injection (1st, 2nd and 3rd booster dose); s.c., saponin 20 μg/mouse with OVA 10 μg/mouse; FIG. 1. The procedure:
Groups of five mice (C57BL/6, female, 6-8 weeks old) were vaccinated subcutaneously three times […] (days 0, 14, and 28) with endotoxin-free OVA (EndoFit™ Ovalbumin, Invitrogen) (10 μg/mouse) in phosphate-buffered saline (PBS, 100 μL) either alone (no-adjuvant control group) or with the synthetic saponins (20 μg/mouse). To analyze the antibody responses over time, mice were bled via the submandibular vein at the indicated pre- (day −1) and post-vaccination timepoint (day 21), and by cardiac puncture at the experimental endpoint (day 35). Blood was collected in BD Microtainer® tubes (Clot Activator/SST™ Gel) and centrifuged at 7500 g for 10 min, after which serum was harvested and stored at −20° C. until further analysis.
As a standard initial overall assessment of the potential toxicity of the saponins, in addition to visual inspection for potential signs of discomfort, the weight loss of each group of mice was monitored before and after each immunization. The median percentage weight change at different timepoints post-injection was determined and analyzed.
Mouse weight loss was monitored after each injection (1st, 2nd and 3rd (booster dose)).

Take `CC1OC(OC2C(OC(=O)C34CCC(C)(C)CC3C3=CCC5C6(C)CCC(OC7OC(C(=O)O)C(O)C(OC8OCC(O)C(O)C8O)C7OC7OC(CO)C(O)C(O)C7O)C(C)(C=O)C6CCC5(C)C3(C)CC4O)OC(CO)C(NC(=O)CCCCCNC(=O)c3ccc(C(=O)c4ccc(C(=O)NCCOCCOCCOCCOCCOCCNC(=O)CCCCC5SCC6NC(=O)NC65)cc4)cc3)C2O)C(O)C(O)C1OC1OCC(O)C(O)C1O` (stereo not shown) [BTS-25-BP]: the “Mouse weight loss (toxicity)” value is reported as “about 2%”.
